In patent publication US6376679B2, “Photoprotective/cosmetic compositions comprising novel benz-x-azole-substituted silane/siloxane sunscreens” (Societe L'Oreal S.A., priority 1997, dated 2002):
Values joined by “and” are separate entries in the source; they are usually repeats but may differ in a detail not shown here. Equal entries are not always repeated.

Test: UV absorption (ethanol)
Format: physicochemical
Settings: UV spectrum in ethanol; for εmax: at the λmax of the same cell

λmax | εmax | SMILES
302 nm and 343 nm | 18,500 and 16,200 | C=C(C)Cc1cc(OC)cc(-c2nc3ccccc3[nH]2)c1O [2-(1H-benzimidazol-2-yl)-4-methoxy-6-(2-methyl-allyl)-phenol]
299 nm and 333 nm | 20,130 and 14,180 | C=C(C)Cc1cc(C)cc(-c2nc3ccccc3o2)c1O [2-benzoxazol-2-yl-4-methyl-6-(2-methyl-allyl)-phenol]

SMILES | λmax | εmax
C[Si](C)(C)CCCOc1ccc(-c2nc3ccccc3[nH]2)c(O)c1 [Example 3] | 333 nm and 318 nm | 22,200 and 24,250
